We go through one compound from patent US9428732B2, “Compositions and methods for differentiating pluripotent stem cells into primitive blood cells and uses thereof” (Primorigen Biosciences, Inc., priority 2011, dated 2016).

What all share (type): cell-based, human
One test relates to ES and iPS cells. Put plainly: Small molecule screen, CFU-GEMM assays of myeloid progenitors. The conditions noted are these: relative to DMSO control; DEAB 10 μM, rapamycin 0.1 μM; FIG. 3D. The method, then:
(§1) The differentiation cultures were trypsinized at the indicated time points and single-cell suspensions were generated following trypsinization. For the Colony Forming Unit (CFU) assays using methyl cellulose cultures, 25% of the cells were plated in 2 ml of MethoCult H4435 (STEMCELL Technologies, Vancouver, BC) in six-well plates. Alternatively, sorted CD45+, CD43+, CD34+, 7AAD-cells were sorted and plated at 500 cells per 2 ml Methocult media. Cells were incubated for 14 days in a humidified incubator at 37° C. with 5% CO2 and evaluated for colonies by bright-field microscopy (Zeiss (Oberkochen, Germany, www.zeiss.com) Axiovert 200 with a Zeiss Axiocam), Cells were resuspended in PBS supplemented with 2% FBS. For the lymphoid myeloid differentiation assays, either CD45+, CD43+, CD34+, 7AAD-hematopoietic progenitors, or CD45+, CD43+, CD34+, CD38−, CD90+, CD45RA− phenotypic HSCs were plated at 20-40 cells per well onto OP9 and OP9delta feeder lines for B-cell and T-cell differentiation, respectively, as previously described (Nozad Charoudeh H, Tang Y, Cheng M, Cilio C M, Jacobsen S E, Sitnicka E., Identification of an NK/T cell-restricted progenitor in adult bone marrow contributing to bone marrow- and thymic-dependent NK cell, Blood, 2010 Jul. 15; 116(2):183-92. NK cell differentiation as well as myeloid cell differentiation was also detected in this differentiation system. […]

The subject of test [1] is hematopoietic progenitor cells differentiated from iPS cells. Put plainly: Colony Forming Unit (CFU) assay in methyl cellulose with DEAB. The conditions noted are these: 10 µM DEAB; 14 days MethoCult. The procedure:
as §1

Test [2] deals with pluripotent stem cell differentiation cultures. Put plainly: Beating cardiomyocyte colonies in differentiation cultures. The conditions noted are these: cultures using DEAB; data not shown. The source says: Within the mesoderm lineage we then quantified the expression of markers of the paraxial (FOXC1) and lateral plate (FOXF1, hematopoietic and cardiac precursor) mesoderm. […] This is likely the result of anterior lateral plate mesoderm formation (precursors of the heart). We saw a dramatic upregulation of the cardiogenic mesoderm marker NKX2.5 in the DMSO control at this time point (FIG. 6G, Day 12 onward).

The subject of test [3] is iPS-derived hematopoietic progenitors and phenotypic HSCs. Put plainly: Differentiation into lymphocytes on OP9 and OP9delta feeder lines, FACS. The conditions noted are these: cells generated from iPS cells with DEAB at 10 uM; 14 to 21 days. The method, then:
as §1

On to `CCN(CC)c1ccc(C=O)cc1` [DEAB, 4-diethylaminobenzaldehyde], for which, in the test on ES and iPS cells, the “output of myeloid progenitors (CFU/BFU)” value was “increased”. In addition, in test [1], the “levels of all four major CFU assay types (CFU-G, CFU-M, CFU-GEMM, BFU-E)” value was “measurable levels” and the “total number of colonies vs cells not differentiated in the presence of DEAB (DMSO control)” value is recorded as “more than double”. Further, in test [2], the “numbers of beating cardiomyocytes colonies” value is on record as “significantly reduced numbers”. Further, in test [3], the “ability of generated HSCs to differentiate into lymphoid cells (B, NK, T)” value is reported as “capable of differentiating to each type of tested lymphocyte”.
